Results as given in BindingDB's records for doi:10.1021/jm9811054 (Merck, 2000).

target: 5-HT1D receptor (Bos taurus); assay: Binding affinity towards 5-hydroxytryptamine 1D receptor in calf striatum using [3H]5-HT as radio-ligand.

SMILES | IC50 [nM]
COc1ccc(NC(=O)NCCc2c[nH]c3ccc(F)cc23)cc1N1CCN(C)CC1 [1-[2-(5-Fluoro-1H-indol-3-yl)-ethyl]-3-[4-methoxy-3-(4-methyl-piperazin-1-yl)-phenyl]-urea] | 167
COc1ccc(NC(=O)NCCN2CCC(c3c[nH]c4cc(F)ccc34)CC2)cc1OCCN(C)C [1-[3-(2-Dimethylamino-ethoxy)-4-methoxy-phenyl]-3-{2-[4-(6-fluoro-1H-indol-3-yl)-piperidin-1-yl]-ethyl}-urea] | 433
COc1ccc(NC(=O)N2CCC(c3c[nH]c4ccc(C(N)=O)cc34)CC2)cc1N1CCN(C)CC1 [3-{1-[4-Methoxy-3-(4-methyl-piperazin-1-yl)-phenylcarbamoyl]-piperidin-4-yl}-1H-indole-5-carboxylic acid amide] | 100
COc1ccc(NC(=O)N2CCC(c3c[nH]c4ccc(C#N)cc34)CC2)cc1N1CCN(C)CC1 [4-(5-Cyano-1H-indol-3-yl)-piperidine-1-carboxylic acid [4-methoxy-3-(4-methyl-piperazin-1-yl)-phenyl]-amide] | 400
COc1ccc(NC(=O)N2CCC(c3c[nH]c4cc(F)ccc34)CC2)cc1N1CCN(C)CC1 [4-(6-Fluoro-1H-indol-3-yl)-piperidine-1-carboxylic acid [4-methoxy-3-(4-methyl-piperazin-1-yl)-phenyl]-amide] | 200
COc1ccc(NC(=O)N2CCN(CCCCc3c[nH]c4ccc(F)cc34)CC2)cc1N1CCN(C)CC1 [4-[4-(5-Fluoro-1H-indol-3-yl)-butyl]-piperazine-1-carboxylic acid [4-methoxy-3-(4-methyl-piperazin-1-yl)-phenyl]-amide] | 367
COc1ccc(NC(=O)N2CCc3[nH]c4ccc(F)cc4c3C2)cc1N1CCN(C)CC1 [8-Fluoro-1,3,4,5-tetrahydro-pyrido[4,3-b]indole-2-carboxylic acid [4-methoxy-3-(4-methyl-piperazin-1-yl)-phenyl]-amide] | 667
